For the assay, the system named is P. falciparum K1 (CQ-resistant strain). The assay is described as follows: Antimalarial activity, chloroquine-resistant strain K1. It counts as cell-based, Plasmodium falciparum.

As for `COc1cccc(Oc2ccc3c(NCCCNCc4cc(F)ccc4OC)ccnc3c2)c1` [3{1,3,4}], the “antimalarial activity against strain K1 (in words)” value (shortened to “antimalarial activity”) was “enhanced potency in strain K1”.

Regarding `COc1ccc(F)cc1CNCCCNc1ccnc2cc(Oc3ccc(F)cc3)ccc12` [3{1,5,4}], the “antimalarial activity” value is “enhanced potency in strain K1”.

For `COc1ccc(F)cc1CNCCCNc1ccnc2cc(Oc3ccccc3)ccc12` [3{1,1,4}], the “antimalarial activity” value is on record as “enhanced potency in strain K1”.

(Values after paper PMC3697074 (Journal of medicinal chemistry, 2011).)
